Measurements published in PMC9421656, “Beyond Retigabine: Design, Synthesis, and Pharmacological Characterization of a Potent and Chemically Stable Neuronal Kv7 Channel Activator with Anticonvulsant Activity” (Journal of Medicinal Chemistry, 2022).
Like-named read-outs stand apart in the source and are kept apart here.

Assays:
[1] = Plasma concentration-time course and half-life in rats; settings: Sprague-Dawley, rat, in vivo, ip, 3 mg/kg
Procedure: The drug half-lives were calculated using GraphPad Prism 8.0.2 (GraphPad Software, LaJolla, CA).
Returning to 40% B in 0.10 min. The flow rate was set at 0.5 mL/min. The column oven was set at 45 °C, and 5 μL of extract was injected. All additives and mobile phases were LCMS-grade and purchased from Merck (Milan, Italy).
The ESI was operated in positive mode. […] Interface temperature, desolvation line temperature, and heat block temperature were set, respectively, to 250, 250, and 350 °C. Nebulizing, drying (N2), and heating gas (air) were set, respectively, to 3, 10, and 10 L/min.

Kv7.2/Kv7.3 channels = Kv7.2/Kv7.3 channels (Homo sapiens, UniProt O43525+O43526); test: Whole-cell patch-clamp electrophysiology in CHO cells expressing Kv7.2/Kv7.3; assay type: cell-based; parameters: expressed in transfected cells; host or cells: CHO cells, transient transfection (pcDNA3.1, Lipofectamine 2000); settings: for EC50: dose-response 0.01–30 μM
Procedure: Channel subunits were expressed in Chinese hamster ovary (CHO) cells by transient transfection, using plasmids containing cDNAs encoding human Kv7.2 and/or Kv7.3, all cloned in the pcDNA3.1 vector. According to the experimental protocol, these plasmids were expressed individually or in combination, together with a plasmid-expressing enhanced green fluorescent protein (Clontech, Palo Alto, CA) used as a transfection marker. Total cDNA in the transfection mixture was kept at 4 μg. CHO cells were grown in 100 mm plastic Petri dishes in Dulbecco’s modified Eagle’s medium containing 10% fetal bovine serum, nonessential amino acids (0.1 mM), penicillin (50 U/mL), and streptomycin ([…]) in a humidified atmosphere at 37 °C with 5% CO2.
Currents from CHO cells were recorded at room temperature (20–22 °C) using the whole-cell configuration of the patch-clamp technique, with glass micropipettes of 3–5 MΩ resistance. During the recording, constant perfusion of extracellular solution was maintained. […] The pipette (intracellular) solution contained (in mM): 140 KCl, 2 MgCl2, 10 EGTA, 10 HEPES, 5 Mg^2+-ATP, at pH 7.3–7.4, with KOH. […] To evaluate the activity of each compound on Kv7.2 + Kv7.3 currents, the cells were clamped at −80 mV and conductance–voltage curves (G/V curves; activation curves) were generated by normalizing to the maximal value of the instantaneous isopotential currents at 0 mV and expressing the normalized values as a function of the preceding voltages. Data were fit to a Boltzmann distribution of the following form: y = max/[1 + exp (V1/2 – V)/k], where V is the test potential, V1/2 is the half-activation potential, and k is the slope factor.
Indicated EC50 values are the mean of at least three independent experiments ± standard error of the mean (SEM).
Statistically significant differences in electrophysiological data were evaluated with the Student t test or with ANOVA followed by the Student–Newman–Keuls test when multiple groups were compared, with the threshold set at p < 0.05. […] Values are expressed as the […] mean ± standard error of the mean (SEM) of at least three cells recorded in at least three independent transfections.

Kv7.4 channels = biological target: T1, Kv7.4 channels (Homo sapiens, UniProt P56696); test: Whole-cell patch-clamp electrophysiology in CHO cells expressing Kv7.4; assay type: cell-based; settings: 0.1 μM, Kv7.4 currents
T1 construct: expressed in transfected cells; host or cells: CHO cells
Procedure: In order to evaluate the effects of compound 60 on other Kv7 channels, its ability to activate Kv7.4 channels expressed in CHO cells was also investigated. […]. During the recording, constant perfusion of extracellular solution was maintained. The extracellular solution contained (in mM): 138 NaCl, 2 CaCl2, 5.4 KCl, 1 MgCl2, 10 glucose, and 10 HEPES, at pH 7.4, with NaOH. The pipette (intracellular) solution contained (in mM): 140 KCl, 2 MgCl2, 10 EGTA, 10 HEPES, 5 Mg^2+-ATP, at pH 7.3–7.4, with KOH. Current was recorded using an Axopatch-200A amplifier, filtered at 5 kHz, and digitized using a DigiData 1440A (Molecular Devices). The pCLAMP software (version 10.2) was used for data acquisition and analysis (Molecular Devices). To evaluate the activity of each compound on Kv7.2 + Kv7.3 currents, the cells were clamped at −80 mV and conductance–voltage curves (G/V curves; activation curves) were generated by normalizing to the maximal value of the instantaneous isopotential currents at 0 mV and expressing the normalized values as a function of the preceding voltages. Data were fit to a Boltzmann distribution of the following form: y = max/[1 + exp (V1/2 – V)/k], where V is the test potential, V1/2 is the half-activation potential, and k is the slope factor.

[2] = Chemical stability in aqueous buffer without light exposure; assay type: physicochemical; settings: 3 h, avoiding UV light exposure
Procedure: […]. The reduced electron availability at N2 and N4 due to the presence of fluorine atom in position 3 of compound 60 strongly reduces also the first photo-oxidative step, thus conferring remarkable photostability.
Photostability experiments were performed by dissolving compounds in DMSO and then diluting in buffered aqueous solutions at pH 7.4 to a final concentration of 10 μM. 1 cm quartz cells, filled with the abovementioned solutions, were irradiated by a UV lamp (UV Consulting TQ 150 equipped with Duran 50 sleeve and 150 W power supply unit, Peschl, Germany) at a fixed distance of 20 cm from the UV source. Control samples were maintained at 37 °C, wrapped with aluminum foil to avoid light exposure, and used to assess chemical stability of the compounds. At predetermined intervals, aliquots were withdrawn and analyzed by UHPLC in order to assess the concentration decrease of the starting materials and the presence of the dimers usually formed by retigabine.
Photostability and chemical stability experiments were carried out on a Kinetex^TM C18 150 × 2.1 mm × 2.6 μm (100 Å) column (Phenomenex, Bologna, Italy). […] Data acquisition was set in the range 190–800 nm, and chromatograms were monitored at 224 nm to assess the decrease in concentration of the starting material, while a wavelength of 550 nm was used to eventually detect dimerization.

Row | Structure (SMILES) | half-life [1] [h] | Potency relative to RL-81 (Kv7.2/Kv7.3 channels) | Leftward shift in V1/2 (ΔV1/2) (Kv7.2/Kv7.3 channels; 1 μM) [mV] | Idrug/Icontrol (maximal current density) (Kv7.2/Kv7.3 channels; calculated at +20 mV) | EC50 (Kv7.2/Kv7.3 channels; current at +20 mV, read-out: Maximal currents EC50) [nM] | EC50 (Kv7.2/Kv7.3 channels; read-out: ΔV1/2 EC50) [nM] | Potency over retigabine as Kv7.2/Kv7.3 activator (fold/times) (Kv7.2/Kv7.3 channels; from ΔV1/2 EC50) | Idrug/Icontrol (Kv7.4 channels) | ΔV1/2 (Kv7.4 channels) [mV] | Chemical stability [2]
1 | CCOC(=O)Nc1ccc(NCc2ccc(F)cc2)cc1N [RET, retigabine] | 2.4 | – | – | – | – | – | – | – | – | –
2 | CC(C)(C)CC(=O)Nc1ccc(NCc2ccc(C(F)(F)F)cc2)c(F)c1N [compound 60, N-(2-Amino-3-fluoro-4-((4-(trifluoromethyl)benzyl)amino)phenyl)-3,3-dimethylbutanamide] | – | about twice more potent than RL-81 | ~50 | 2.1 ± 0.3 | 60 ± 10 | 150 ± 30 | 16 | 2.5 ± 0.3 | −29.2 ± 4.4 | showed chemical stability
